Data published in US20110257208A1, “COMPOUNDS USEFUL AS FAAH MODULATORS AND USES THEREOF” (priority 2008, published 2011).

target: T1, hFAAH (Homo sapiens, UniProt O00519); assay: Fluorimetric assay with hFAAH microsomes (enzymatic, fluorescence based); assay type: biochemical; conditions: compound at 1 uM, AA-AMC substrate
T1 construct: expressed in transfected cells; host or cells: HEK293-TRex (Invitrogen) stably transfected with hFAAH in the pcDNA5-Tet-off vector, or T84 human colon epithelial cells (endogenous hFAAH); used as a microsomal preparation
T1 sequence (O00519 1-579): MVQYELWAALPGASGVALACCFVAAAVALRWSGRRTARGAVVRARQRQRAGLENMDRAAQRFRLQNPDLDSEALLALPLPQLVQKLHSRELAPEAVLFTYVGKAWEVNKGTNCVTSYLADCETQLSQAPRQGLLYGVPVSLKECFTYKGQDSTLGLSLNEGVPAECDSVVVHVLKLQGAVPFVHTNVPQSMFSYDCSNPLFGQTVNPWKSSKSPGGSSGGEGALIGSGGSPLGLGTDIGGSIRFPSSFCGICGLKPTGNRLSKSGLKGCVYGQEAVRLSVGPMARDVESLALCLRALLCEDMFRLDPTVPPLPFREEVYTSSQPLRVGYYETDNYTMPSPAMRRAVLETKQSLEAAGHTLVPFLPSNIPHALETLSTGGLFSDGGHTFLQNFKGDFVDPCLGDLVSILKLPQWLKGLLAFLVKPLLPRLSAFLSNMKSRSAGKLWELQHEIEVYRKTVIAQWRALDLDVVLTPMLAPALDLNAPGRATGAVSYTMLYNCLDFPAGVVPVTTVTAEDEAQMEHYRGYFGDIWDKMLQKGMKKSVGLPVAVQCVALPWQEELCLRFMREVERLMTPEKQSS
Procedure: Human cell line T84 (human colon epithelial cells), which expresses endogenous hFAAH, or HEK293-TRex cells (Invitrogen) stably transfected with hFAAH in the pcDNA5-Tet-off vector are cultured in medium containing DMEM, 10% FBS penicillin/streptomycin, glutamax, 200 μg/ml hygromycin and 0.5 μg/ml blasticidin. Cell collection is done 24 h after induction with doxycycline by first washing the cells with cold PBS and then incubating them with Versene before centrifugation. Cell pellets are then stored at −80° C. until needed. For homogenization, the cell pellets are thawed on ice […] and resuspended in homogenization buffer (50 mM HEPES (pH 7.4), 1 mM EDTA, 1 μM Pepstatin A, 100 μM Leupeptin, 0.1 mg/mL aprotinin). Cell suspensions are then homogenized on ice using the Polytron 1200 C at setting 6 for three 30-second intervals with 30-second rests. The suspension is centrifuged at 1000 g for 10 minutes at 4° C. and the supernatant is collected and further centrifuged at 24000 rpm for 30 minutes at 4° C. using an ultracentrifuge. Pellets are resuspended by adding in cold microsomal buffer (50 mM HEPES (pH 7.4) and 1 mM EDTA) and sheared through a 23-gauge needle five times, keeping the suspension on ice. Protein concentrations are determined using the BCA assay and aliquoted preparations are stored at −80° C. until needed.
Compound potency against hFAAH is determined using an enzymatic assay with a fluorescence readout. Briefly, experiments were carried out in a 96-well plate format (Corning Costar, # 3370) with a total well volume of 160 μL with components added in the following order: assay buffer (50 mM HEPES (pH 7.4), 1 mM EDTA, 1.4 mg/mL BSA), compound solutions (7 different concentrations per compound in duplicate), microsomal enzyme preparation (10 μg per well) and substrate [AA-AMC (arachadonyl 7-amino 4-methyl coumarin amide), 2 μM]. After a brief shaking, a kinetic read of the plate is obtained using a Tecan Safire II in kinetic mode for 275 cycles with excitation and emission wavelengths of 355 and 460 nm, respectively. Raw data is then processed and analyzed using Assay Explorer and GraphPad Prism.
The following compounds have been or can be prepared according to the methods of the invention. An enzymatic (fluorescence based) assay is performed as described above. In Table 1, activity of each compound is expressed as follows: • ++++ % Inhibition >75% • +++ % Inhibition >50% • ++ % Inhibition >25% • + % Inhibition <25%

Row | inhibition at 1 µM [%] | Compound
1 | > 25 | COC(=O)c1cc(S(=O)(=O)N2Cc3ncnc(Nc4cnc5ccccc5c4)c3C2)oc1C [Compound 62, 2-Methyl-5-[4-(quinolin-3-ylamino)-5,7-dihydro-pyrrolo[3,4-d]pyrimidine-6-sulfonyl]-furan-3-carboxylic acid methyl ester]
2 | < 25 | Cc1nc(C)c(CC(=O)N2Cc3ncnc(Nc4cnc5ccccc5c4)c3C2)s1 [Compound 50, 2-(2,4-Dimethyl-thiazol-5-yl)-1-[4-(quinolin-3-ylamino)-5,7-dihydro-pyrrolo[3,4-d]pyrimidin-6-yl]-ethanone]
3 | > 50 | O=S(=O)(C1CCCCC1)N1Cc2ncnc(Nc3cnc4ccccc4c3)c2C1 [Compound 64, (6-Cyclohexanesulfonyl-6,7-dihydro-5H-pyrrolo[3,4-d]pyrimidin-4-yl)-quinolin-3-yl-amine]
4 | > 25 | Cc1c(CN2Cc3ncnc(Nc4cnc5ccccc5c4)c3C2)cnn1C [Compound 26, [6-(1,5-Dimethyl-1H-pyrazol-4-ylmethyl)-6,7-dihydro-5H-pyrrolo[3,4-d]pyrimidin-4-yl]-quinolin-3-yl-amine]
5 | < 25 | O=S(=O)(CCc1ccccc1)N1Cc2ncnc(Nc3cnc4ccccc4c3)c2C1 [Compound 82, [6-(2-Phenyl-ethanesulfonyl)-6,7-dihydro-5H-pyrrolo[3,4-d]pyrimidin-4-yl]-quinolin-3-yl-amine]
6 | < 25 | OCCCCN1Cc2ncnc(Nc3cnc4ccccc4c3)c2C1 [Compound 20, 4-[4-(Quinolin-3-ylamino)-5,7-dihydro-pyrrolo[3,4-d]pyrimidin-6-yl]-butan-1-ol]
7 | > 50 | c1ccc2ncc(Nc3ncnc4c3CN(C3CCCC3)C4)cc2c1 [Compound 41, (6-Cyclopentyl-6,7-dihydro-5H-pyrrolo[3,4-d]pyrimidin-4-yl)-quinolin-3-yl-amine]
8 | > 25 | Cn1nccc1CN1Cc2ncnc(Nc3cnc4ccccc4c3)c2C1 [Compound 24, [6-(2-Methyl-2H-pyrazol-3-ylmethyl)-6,7-dihydro-5H-pyrrolo[3,4-d]pyrimidin-4-yl]-quinolin-3-yl-amine]
9 | < 25 | c1ccc2ncc(Nc3ncnc4c3CN(C3CCC3)C4)cc2c1 [Compound 43, (6-Cyclobutyl-6,7-dihydro-5H-pyrrolo[3,4-d]pyrimidin-4-yl)-quinolin-3-yl-amine]
10 | > 75 | c1ccc2ncc(Nc3ncnc4c3CN(Cc3cccc5cc[nH]c35)C4)cc2c1 [Compound 110, [6-(1H-Indol-7-ylmethyl)-6,7-dihydro-5H-pyrrolo[3,4-d]pyrimidin-4-yl]-quinolin-3-yl-amine]
11 | > 50 | c1ccc2ncc(Nc3ncnc4c3CN(CC3CCC3)C4)cc2c1 [Compound 21, (6-Cyclobutylmethyl-6,7-dihydro-5H-pyrrolo[3,4-d]pyrimidin-4-yl)-quinolin-3-yl-amine]
12 | < 25 | CC(C)N1Cc2ncnc(Nc3cnc4ccccc4c3)c2C1 [Compound 34, (6-Isopropyl-6,7-dihydro-5H-pyrrolo[3,4-d]pyrimidin-4-yl)-quinolin-3-yl-amine]
13 | < 25 | CCC(C)N1Cc2ncnc(Nc3cnc4ccccc4c3)c2C1 (stereo not shown) [Compound 35, (6-sec-Butyl-6,7-dihydro-5H-pyrrolo[3,4-d]pyrimidin-4-yl)-quinolin-3-yl-amine]
14 | > 50 | CC(C)CCN1Cc2ncnc(Nc3cnc4ccccc4c3)c2C1 [Compound 9, [6-(3-Methyl-butyl)-6,7-dihydro-5H-pyrrolo[3,4-d]pyrimidin-4-yl]-quinolin-3-yl-amine]
15 | > 50 | Cc1cccc(C)c1CN1Cc2ncnc(Nc3cnc4ccccc4c3)c2C1 [Compound 88, [6-(2,6-Dimethyl-benzyl)-6,7-dihydro-5H-pyrrolo[3,4-d]pyrimidin-4-yl]-quinolin-3-yl-amine]
16 | > 75 | CCc1ccccc1CN1Cc2ncnc(Nc3cnc4ccccc4c3)c2C1 [Compound 90, [6-(2-Ethyl-benzyl)-6,7-dihydro-5H-pyrrolo[3,4-d]pyrimidin-4-yl]-quinolin-3-yl-amine]
